Test results: patent US20120270237A9, “METHODS FOR THE IDENTIFICATION OF KINASE INTERACTING MOLECULES AND FOR THE PURIFICATION OF KINASE PROTEINS” (Cellzone AG, priority 2009, published 2012)

How the values were obtained:
AMPKa2 = biological target: T1, AMPKa2 (Homo sapiens, UniProt P54646); test: Kinobeads competition binding, HeLa Placenta lysate mix; details: 10 μM free compound
T1 construct: capturing and identification of kinases from mixed HeLa placenta lysates; endogenous in cells; host or cells: mixed lysate of HeLa cells and placenta tissue
Protocol: (§1) To one aliquot of cell lysate 10 μM of the free compound (FIG. 3, CZC31326) was added and allowed to bind to proteins in the lysate. Then the affinity matrix with the immobilized compound was added to capture proteins that were not interacting with the previously added free compound. Beads were separated from the lysate and bead bound proteins were eluted in SDS sample buffer and subsequently separated by SDS-Polyacrylamide gel electrophoresis (FIG. 10). Suitable gel bands were cut out and subjected to in-gel proteolytic digestion with trypsin. The second lysate aliquot was processed identically, however no free compound was added (DMSO solvent control). Peptides originating from samples 1 and 2 were labeled with iTRAQ reagents (iTRAQ 114 and iTRAQ 117) and the combined samples were analyzed with a nano-flow liquid chromatography system coupled online to a tandem mass spectrometer (LC-MS/MS) experiment followed by iTRAQ reporter ion quantification in the MS/MS spectra as described in Example 2.

CaMKK1 = biological target: T2, CaMKK1 (Homo sapiens, UniProt Q8N5S9); test: as above; details: 10 μM free compound
T2 construct: capturing and identification of kinases from mixed HeLa placenta lysates; endogenous in cells; host or cells: mixed lysate of HeLa cells and placenta tissue
Protocol: as §1

FAK = biological target: T3, FAK (Homo sapiens, UniProt Q05397); test: as above; details: 10 μM free compound
T3 construct: capturing and identification of kinases from mixed HeLa placenta lysates; endogenous in cells; host or cells: mixed lysate of HeLa cells and placenta tissue
Protocol: as §1

FLT4 = biological target: T4, FLT4 (Homo sapiens, UniProt P35916); test: as above; details: 10 μM free compound
T4 construct: capturing and identification of kinases from mixed HeLa placenta lysates; endogenous in cells; host or cells: mixed lysate of HeLa cells and placenta tissue
Protocol: as §1

KDR = biological target: T5, KDR (Homo sapiens, UniProt P35968); test: as above; details: 10 μM free compound
T5 construct: capturing and identification of kinases from mixed HeLa placenta lysates; endogenous in cells; host or cells: mixed lysate of HeLa cells and placenta tissue
Protocol: as §1

MAP3K6 = biological target: T6, MAP3K6 (Homo sapiens, UniProt O95382); test: as above; details: 10 μM free compound
T6 construct: capturing and identification of kinases from mixed HeLa placenta lysates; endogenous in cells; host or cells: mixed lysate of HeLa cells and placenta tissue
Protocol: as §1

MAP3K7 = biological target: T7, MAP3K7 (Homo sapiens, UniProt O43318); test: as above; details: 10 μM free compound
T7 construct: capturing and identification of kinases from mixed HeLa placenta lysates; endogenous in cells; host or cells: mixed lysate of HeLa cells and placenta tissue
Protocol: as §1

MRCKa = biological target: T8, MRCKa (Homo sapiens, UniProt Q5VT25); test: as above; details: 10 μM free compound
T8 construct: capturing and identification of kinases from mixed HeLa placenta lysates; endogenous in cells; host or cells: mixed lysate of HeLa cells and placenta tissue
Protocol: as §1

MRCKb = biological target: T9, MRCKb (Homo sapiens, UniProt Q9Y5S2); test: as above; details: 10 μM free compound
T9 construct: capturing and identification of kinases from mixed HeLa placenta lysates; endogenous in cells; host or cells: mixed lysate of HeLa cells and placenta tissue
Protocol: as §1

PKG1 = biological target: T10, PKG1 (Homo sapiens, UniProt Q13976); test: as above; details: 10 μM free compound
T10 construct: capturing and identification of kinases from mixed HeLa placenta lysates; endogenous in cells; host or cells: mixed lysate of HeLa cells and placenta tissue
Protocol: as §1

SRC = biological target: T11, SRC (Homo sapiens, UniProt P12931); test: as above; details: 10 μM free compound
T11 construct: capturing and identification of kinases from mixed HeLa placenta lysates; endogenous in cells; host or cells: mixed lysate of HeLa cells and placenta tissue
Protocol: as §1

TIE2 = biological target: T12, TIE2 (Homo sapiens, UniProt Q02763); test: as above; details: 10 μM free compound
T12 construct: capturing and identification of kinases from mixed HeLa placenta lysates; endogenous in cells; host or cells: mixed lysate of HeLa cells and placenta tissue
Protocol: as §1

TNK1 = biological target: T13, TNK1 (Homo sapiens, UniProt Q13470); test: as above; details: 10 μM free compound
T13 construct: capturing and identification of kinases from mixed HeLa placenta lysates; endogenous in cells; host or cells: mixed lysate of HeLa cells and placenta tissue
Protocol: as §1

IKKe = biological target: T14, IKKe (Homo sapiens, UniProt Q14164); test: Kinobeads competition binding, L-363 cell lysate; set-up: endogenous in cells; host or cells: L-363 (treated with MG132 before harvest); details: 10 μM free compound, L-363 lysate
T14 sequence (Q14164 1-716): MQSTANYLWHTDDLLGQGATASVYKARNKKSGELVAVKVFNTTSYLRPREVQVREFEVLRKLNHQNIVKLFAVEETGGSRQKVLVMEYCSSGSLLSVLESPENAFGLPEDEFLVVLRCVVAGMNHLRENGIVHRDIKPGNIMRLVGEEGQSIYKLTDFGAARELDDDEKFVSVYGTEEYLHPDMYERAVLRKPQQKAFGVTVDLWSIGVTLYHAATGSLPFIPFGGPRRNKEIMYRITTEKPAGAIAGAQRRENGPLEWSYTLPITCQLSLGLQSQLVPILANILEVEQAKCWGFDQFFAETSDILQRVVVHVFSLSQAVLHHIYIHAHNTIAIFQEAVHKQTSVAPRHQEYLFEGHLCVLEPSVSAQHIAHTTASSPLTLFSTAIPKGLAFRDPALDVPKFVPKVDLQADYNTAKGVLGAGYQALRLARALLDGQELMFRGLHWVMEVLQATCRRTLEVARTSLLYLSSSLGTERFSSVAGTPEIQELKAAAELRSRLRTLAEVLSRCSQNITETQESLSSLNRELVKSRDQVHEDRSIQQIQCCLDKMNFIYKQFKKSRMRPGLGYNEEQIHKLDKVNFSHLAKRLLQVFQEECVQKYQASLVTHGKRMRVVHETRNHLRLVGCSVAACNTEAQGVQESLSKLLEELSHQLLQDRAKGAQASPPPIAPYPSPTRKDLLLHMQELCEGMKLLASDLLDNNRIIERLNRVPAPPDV
Protocol: as §1, with “8).” for “10).”
For this experiment the human plasma cell leukaemia line L-363 was used (German Collection of Microorganisms and Cell Cultures, DSMZ number ACC49, Braunschweig, Germany). Cells were treated for three hours with 20 μM of the proteasome inhibitor MG132 (Z-Leu-Leu-Leu-al, Sigma C2211) prior to cell harvesting.

ALK2 = ALK2 (Homo sapiens, UniProt Q04771); test: Kinobeads competition binding, HeLa Placenta lysate mix; set-up: capturing and identification of kinases from mixed HeLa placenta lysates; endogenous in cells; host or cells: mix of HeLa cell lysate and placenta tissue lysate; details: 10 μM free compound
Protocol: as §1

CDK2 = CDK2 (Homo sapiens, UniProt P24941); test: as above; set-up: capturing and identification of kinases from mixed HeLa placenta lysates; endogenous in cells; host or cells: mix of HeLa cell lysate and placenta tissue lysate; details: 10 μM free compound
Protocol: as §1

T4 sequence (P35916 25-1363): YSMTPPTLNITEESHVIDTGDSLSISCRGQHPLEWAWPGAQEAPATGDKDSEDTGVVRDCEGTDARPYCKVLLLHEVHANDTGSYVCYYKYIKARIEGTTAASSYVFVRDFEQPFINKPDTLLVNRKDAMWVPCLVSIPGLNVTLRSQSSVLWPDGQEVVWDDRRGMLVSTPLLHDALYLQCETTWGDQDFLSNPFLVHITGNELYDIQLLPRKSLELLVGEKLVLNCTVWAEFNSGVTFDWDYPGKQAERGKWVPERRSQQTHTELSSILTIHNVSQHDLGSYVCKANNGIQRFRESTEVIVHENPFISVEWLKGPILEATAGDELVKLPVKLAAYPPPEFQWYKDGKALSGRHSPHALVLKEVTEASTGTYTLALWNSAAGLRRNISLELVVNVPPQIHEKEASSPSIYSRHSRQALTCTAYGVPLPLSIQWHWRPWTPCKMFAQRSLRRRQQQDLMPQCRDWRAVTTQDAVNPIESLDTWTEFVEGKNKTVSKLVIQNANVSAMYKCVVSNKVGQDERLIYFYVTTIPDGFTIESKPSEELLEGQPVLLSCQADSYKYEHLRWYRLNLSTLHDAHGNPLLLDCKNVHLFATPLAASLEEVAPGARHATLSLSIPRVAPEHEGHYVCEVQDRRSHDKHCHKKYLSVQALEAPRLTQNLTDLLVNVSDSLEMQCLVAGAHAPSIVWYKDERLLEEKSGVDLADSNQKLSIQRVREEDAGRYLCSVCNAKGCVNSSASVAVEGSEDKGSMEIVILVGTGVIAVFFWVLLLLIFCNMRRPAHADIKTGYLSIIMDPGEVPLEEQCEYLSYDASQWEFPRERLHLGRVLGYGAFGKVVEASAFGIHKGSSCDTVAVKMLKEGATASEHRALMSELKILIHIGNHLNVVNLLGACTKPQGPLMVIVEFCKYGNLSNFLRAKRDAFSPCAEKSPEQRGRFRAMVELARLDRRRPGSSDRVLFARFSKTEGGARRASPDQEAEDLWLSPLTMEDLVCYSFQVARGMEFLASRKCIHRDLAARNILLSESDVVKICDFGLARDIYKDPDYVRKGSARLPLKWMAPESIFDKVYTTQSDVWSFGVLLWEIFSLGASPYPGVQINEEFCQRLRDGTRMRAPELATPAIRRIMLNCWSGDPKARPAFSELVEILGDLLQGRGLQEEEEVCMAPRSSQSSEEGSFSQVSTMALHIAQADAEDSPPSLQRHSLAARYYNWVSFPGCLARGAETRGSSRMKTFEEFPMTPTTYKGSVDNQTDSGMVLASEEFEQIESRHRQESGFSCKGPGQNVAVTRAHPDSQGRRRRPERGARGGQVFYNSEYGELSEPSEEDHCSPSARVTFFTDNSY
T9 sequence (Q9Y5S2 whole entry): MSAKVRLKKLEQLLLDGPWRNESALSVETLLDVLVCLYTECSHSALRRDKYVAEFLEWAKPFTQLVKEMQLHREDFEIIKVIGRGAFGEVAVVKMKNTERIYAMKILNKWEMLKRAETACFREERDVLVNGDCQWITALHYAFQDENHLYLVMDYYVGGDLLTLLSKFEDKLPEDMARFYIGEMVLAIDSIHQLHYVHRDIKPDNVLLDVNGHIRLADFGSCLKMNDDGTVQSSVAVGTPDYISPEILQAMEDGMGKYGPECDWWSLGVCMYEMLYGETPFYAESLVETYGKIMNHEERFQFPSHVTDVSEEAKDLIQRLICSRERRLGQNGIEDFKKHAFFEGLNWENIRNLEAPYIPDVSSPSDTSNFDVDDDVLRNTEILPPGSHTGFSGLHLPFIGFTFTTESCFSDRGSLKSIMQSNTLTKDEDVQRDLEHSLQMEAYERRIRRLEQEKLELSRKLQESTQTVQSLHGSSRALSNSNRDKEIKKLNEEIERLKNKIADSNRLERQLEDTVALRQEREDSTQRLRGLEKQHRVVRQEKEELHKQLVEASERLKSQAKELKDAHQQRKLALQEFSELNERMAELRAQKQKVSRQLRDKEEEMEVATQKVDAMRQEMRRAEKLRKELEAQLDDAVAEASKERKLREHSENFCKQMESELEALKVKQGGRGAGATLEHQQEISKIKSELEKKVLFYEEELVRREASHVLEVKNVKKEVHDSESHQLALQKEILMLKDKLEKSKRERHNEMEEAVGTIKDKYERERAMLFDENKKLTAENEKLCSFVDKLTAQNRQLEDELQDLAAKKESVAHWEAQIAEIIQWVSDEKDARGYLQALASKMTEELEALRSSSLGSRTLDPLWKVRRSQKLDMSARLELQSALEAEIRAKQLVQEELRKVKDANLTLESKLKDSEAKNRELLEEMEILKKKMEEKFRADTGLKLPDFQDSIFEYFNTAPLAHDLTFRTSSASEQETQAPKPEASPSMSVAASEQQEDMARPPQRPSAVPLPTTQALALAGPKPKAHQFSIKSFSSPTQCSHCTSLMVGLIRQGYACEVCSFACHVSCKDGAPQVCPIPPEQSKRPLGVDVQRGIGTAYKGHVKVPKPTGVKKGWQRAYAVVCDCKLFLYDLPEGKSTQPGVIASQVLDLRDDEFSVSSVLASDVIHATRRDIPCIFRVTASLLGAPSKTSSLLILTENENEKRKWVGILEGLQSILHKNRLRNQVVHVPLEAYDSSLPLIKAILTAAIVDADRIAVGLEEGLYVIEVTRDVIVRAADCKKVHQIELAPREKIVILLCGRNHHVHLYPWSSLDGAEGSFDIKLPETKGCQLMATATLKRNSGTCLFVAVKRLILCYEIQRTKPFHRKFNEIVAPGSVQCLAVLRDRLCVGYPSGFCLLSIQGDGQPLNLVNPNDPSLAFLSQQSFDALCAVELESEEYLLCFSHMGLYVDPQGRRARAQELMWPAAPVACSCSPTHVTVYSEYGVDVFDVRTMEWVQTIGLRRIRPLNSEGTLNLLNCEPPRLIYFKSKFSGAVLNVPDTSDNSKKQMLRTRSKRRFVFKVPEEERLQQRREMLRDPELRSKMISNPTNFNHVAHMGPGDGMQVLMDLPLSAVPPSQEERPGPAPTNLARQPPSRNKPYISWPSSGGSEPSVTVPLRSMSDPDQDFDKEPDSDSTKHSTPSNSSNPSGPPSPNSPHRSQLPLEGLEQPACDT
T3 sequence (Q05397 whole entry): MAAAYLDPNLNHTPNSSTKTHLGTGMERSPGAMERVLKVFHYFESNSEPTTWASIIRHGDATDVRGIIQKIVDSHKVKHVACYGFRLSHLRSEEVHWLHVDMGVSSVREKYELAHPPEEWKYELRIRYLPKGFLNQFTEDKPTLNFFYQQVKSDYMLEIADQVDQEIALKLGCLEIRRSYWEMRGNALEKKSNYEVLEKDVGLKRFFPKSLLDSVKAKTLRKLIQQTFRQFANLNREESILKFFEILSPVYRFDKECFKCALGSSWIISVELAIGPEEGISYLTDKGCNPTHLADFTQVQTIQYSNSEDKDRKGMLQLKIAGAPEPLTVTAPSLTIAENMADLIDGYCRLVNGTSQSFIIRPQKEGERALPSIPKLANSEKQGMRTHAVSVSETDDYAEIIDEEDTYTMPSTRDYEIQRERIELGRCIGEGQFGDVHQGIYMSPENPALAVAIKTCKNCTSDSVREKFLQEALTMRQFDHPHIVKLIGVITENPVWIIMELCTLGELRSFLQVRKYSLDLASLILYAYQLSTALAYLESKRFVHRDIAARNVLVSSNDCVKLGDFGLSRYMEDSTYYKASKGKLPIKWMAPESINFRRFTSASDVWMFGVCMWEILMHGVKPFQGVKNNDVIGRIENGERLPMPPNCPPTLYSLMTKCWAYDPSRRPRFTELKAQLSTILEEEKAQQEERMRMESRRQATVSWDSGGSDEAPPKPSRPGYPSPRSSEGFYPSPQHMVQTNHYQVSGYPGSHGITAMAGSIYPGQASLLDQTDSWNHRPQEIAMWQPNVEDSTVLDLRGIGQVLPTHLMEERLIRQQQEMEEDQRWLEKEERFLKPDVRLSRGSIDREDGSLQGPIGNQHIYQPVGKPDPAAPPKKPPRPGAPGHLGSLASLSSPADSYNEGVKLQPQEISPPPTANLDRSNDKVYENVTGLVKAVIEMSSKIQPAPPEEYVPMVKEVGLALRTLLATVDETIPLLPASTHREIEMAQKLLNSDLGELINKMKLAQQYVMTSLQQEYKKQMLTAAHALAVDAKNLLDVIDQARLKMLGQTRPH
T2 sequence (Q8N5S9 whole entry): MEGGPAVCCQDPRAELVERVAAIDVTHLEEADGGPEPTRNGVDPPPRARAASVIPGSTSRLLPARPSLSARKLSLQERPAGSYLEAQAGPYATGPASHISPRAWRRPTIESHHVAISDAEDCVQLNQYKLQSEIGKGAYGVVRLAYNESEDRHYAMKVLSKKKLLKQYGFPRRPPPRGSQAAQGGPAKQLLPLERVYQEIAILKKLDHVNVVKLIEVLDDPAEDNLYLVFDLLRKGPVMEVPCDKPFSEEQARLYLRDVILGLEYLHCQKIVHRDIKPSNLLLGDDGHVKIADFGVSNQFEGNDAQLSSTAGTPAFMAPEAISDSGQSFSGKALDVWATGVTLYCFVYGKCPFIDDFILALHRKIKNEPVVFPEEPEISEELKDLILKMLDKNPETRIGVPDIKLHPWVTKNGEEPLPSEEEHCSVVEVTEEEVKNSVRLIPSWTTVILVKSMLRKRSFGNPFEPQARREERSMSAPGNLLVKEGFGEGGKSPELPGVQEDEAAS
ALK2, sequence (Q04771 21-509): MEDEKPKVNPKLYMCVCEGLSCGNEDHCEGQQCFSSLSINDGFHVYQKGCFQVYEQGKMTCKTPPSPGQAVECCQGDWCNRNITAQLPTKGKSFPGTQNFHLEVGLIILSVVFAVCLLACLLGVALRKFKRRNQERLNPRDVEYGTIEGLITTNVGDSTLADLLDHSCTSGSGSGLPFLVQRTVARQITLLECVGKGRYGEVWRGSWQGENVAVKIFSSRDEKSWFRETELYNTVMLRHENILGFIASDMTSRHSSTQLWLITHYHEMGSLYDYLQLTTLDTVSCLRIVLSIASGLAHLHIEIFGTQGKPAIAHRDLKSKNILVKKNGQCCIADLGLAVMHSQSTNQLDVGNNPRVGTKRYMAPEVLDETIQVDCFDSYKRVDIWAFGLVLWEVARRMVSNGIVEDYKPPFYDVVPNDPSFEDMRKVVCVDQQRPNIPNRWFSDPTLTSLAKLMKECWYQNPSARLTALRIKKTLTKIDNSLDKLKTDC

inhibition at 10 µM (AMPKa2): 95.2%
inhibition at 10 µM (CaMKK1): 94.2%
inhibition at 10 µM (FAK): 93.8%
inhibition at 10 µM (FLT4): 89.3%
inhibition at 10 µM (KDR): 90%
inhibition at 10 µM (MAP3K6): 84.3%
inhibition at 10 µM (MAP3K7): 82.1%
inhibition at 10 µM (MRCKa): 92.1%
inhibition at 10 µM (MRCKb): 94%
inhibition at 10 µM (PKG1): 90.4%
inhibition at 10 µM (SRC): 92.2%
inhibition at 10 µM (TIE2): 91.6%
inhibition at 10 µM (TNK1): 94.3%
inhibition at 10 µM (IKKe): 89.4%
inhibition at 10 µM (ALK2): 94.3%
Competition % (CDK2): 93%
Compound: CS(=O)(=O)Nc1ccccc1Nc1nc(Nc2cccc(OCCN)c2)ncc1Cl [CZC31326, N-(2-(2-(3-(2-aminoethoxy)phenylamino)-5-chloropyrimidin-4-ylamino)phenyl)methanesulfonamide]
